Laboratory results published in US20080031986A1 (Metaproteomics, LLC, priority 2005, published 2008).

How the values were obtained:
[1] = tested on: COX-2; conditions: Warner et al. 1999; cited from earlier work
[2] = tested on: 3T3-L1 adipocytes; test: Lipogenesis (Oil Red O / BODIPY) in 3T3-L1 adipocytes; assay type: cell-based, murine; conditions: for adipogenic response versus positive controls indomethacin and troglitazone: Day 0 to D6/7
Experimental: Prior to experiments, cells were cultured in DMEM containing 10% FBS-HI added 50 units penicillin/ml and 50 μg streptomycin/ml, and maintained in log phase prior to experimental setup. Cells were grown in a 5% CO2 humidified incubator at 37° C. Components of the pre-confluent medium included (1) 10% FBS/DMEM containing 4.5 g glucose/L; (2) 50 U/ml penicillin; and (3) 50 μg/ml streptomycin. Growth medium was made by adding 50 ml of heat inactivated FBS and 5 ml of penicillin/streptomycin to 500 ml DMEM. This medium was stored at 4° C. Before use, the medium was warmed to 37° C. in a water bath.
3T3-T1 cells were seeded at an initial density of 6×10^4 cells/cm^2 in 24-well plates. For two days, the cells were allowed grow to reach confluence. Following confluence, the cells were forced to differentiate into adipocytes by the addition of differentiation medium; this medium consisted of (1) 10% FBS/DMEM (high glucose); (2) 0.5 mM methylisobutylxanthine; (3) 0.5 μM dexamethasone and (4) 10 μg/ml insulin (MDI medium). After three days, the medium was changed to post-differentiation medium consisting of 10 μg/ml insulin in 10% FBS/DMEM.
Whenever fresh media were added, fresh test material was also added.
Monolayer cells were washed with PBS (phosphate buffered saline, Mediatech) and fixed with 10% formaldehyde for ten minutes. Fixed cells were stained with an Oil Red O working solution of three parts 0.6% Oil Red O/isopropanol stock solution and two parts water for one hour and the excess stain was washed once with water. The resulting stained oil droplets were extracted from the cells with isopropanol and quantified by spectrophotometric analysis at 540 nm (MEL312e BIO-KINETICS READER, Bio-Tek Instruments, Winooski, Vt.).
Briefly, media were removed and cells were washed once with non-sterile PBS. A stock 1000× BODIPY/DMSO solution was made by dissolving 1 mg BODIPY in 1 ml DMSO (1,000 μg BODIPY/ml). A working BODIPY solution was then made by adding 10 μl of the stock solution to 990 μl PBS for a final BODIPY concentration in the working solution of 0.01 μg/μl. One-hundred μl of this working solution (1 μg BODIPY) was added to each well of a 96-well microtiter plate. After 15 min on an orbital shaker (DS-500, VWR Scientific Products, South Plainfield, N.J.) at ambient temperature, the cells were washed with 100 μl PBS followed by the addition of 100 μl PBS for reading for spectrofluorometric determination of BODIPY incorporation into the cells. […]
Test materials were added in dimethyl sulfoxide at Day 0 of differentiation and every two days throughout the maturation phase (Day 6/7). […] Differentiated 3T3-L1 cells were stained with 0.2% Oil Red O. The resulting stained oil droplets were dissolved with isopropanol and quantified by spectrophotometric analysis at 530 nm.

[3] = tested on: insulin-resistant 3T3-L1 adipocytes; test: Adiponectin secretion from insulin-resistant 3T3-L1 adipocytes; assay type: cell-based, murine; conditions: slope of Hofstee plot
Experimental: 3T3-L1 cells were seeded at an initial density of 1×10^4 cells/cm^2 in 96-well plates. For two days, the cells were allowed grow to reach confluence. Following confluence, the cells were forced to differentiate into adipocytes by the addition of differentiation medium; this medium consisted of (1) 10% FBS/DMEM (high glucose); (2) 0.5 mM methylisobutylxanthine; (3) 0.5 μM dexamethasone and (4) 10 μg/ml insulin (MDI medium). From Day 3 through Day 5, the medium was changed to post-differentiation medium consisting of 10 μg/ml insulin in 10% FBS/DMEM.
Briefly, on Day 6, cells were maintained in serum-free media containing 0.5% bovine serum albumin (BSA) for three hours and then treated with 1 μg insulin/ml plus solvent or insulin plus test material. […] Twenty-four hours later, the supernatant medium was sampled for adiponectin determination.
Statistical Calculations and Interpretation—All assays were preformed in duplicate. […] Differences between the doses were determined using the student's t-test without correction for multiple comparisons; the nominal five percent probability of a type I error was selected.
Substituting {relative adiponectin secretion/[concentration]} for the independent variable v/[S] and {relative adiponectin secretion} for the dependant variable {v}, produced a relationship of the form y=mx+b. […]

[4] = tested on: TNFα-treated 3T3-L1 adipocytes; test: Adiponectin secretion from TNFα-treated 3T3-L1 adipocytes; assay type: cell-based, murine; conditions: for maximum increase of adiponectin secretion over TNFα solvent control: 10 ng TNFα/ml
Experimental: 3T3-L1 cells were seeded at an initial density of 1×10^4 cells/cm^2 in 96-well plates. For two days, the cells were allowed grow to reach confluence. Following confluence, the cells were forced to differentiate into adipocytes by the addition of differentiation medium; this medium consisted of (1) 10% FBS/DMEM (high glucose); (2) 0.5 mM methylisobutylxanthine; (3) 0.5 μM dexamethasone and (4) 10 μg/ml insulin (MDI medium). From Day 3 through Day 5, the medium was changed to post-differentiation medium consisting of 10% FBS in DMEM. […] On Day 6, the supernatant medium was sampled for adiponectin determination.
Statistical Calculations and Interpretation—All assays were preformed in duplicate. […] Differences among the doses and test agents were determined using the Student's t-test without correction for multiple comparisons; the nominal five percent probability of a type I error was selected.

[5] = tested on: db/db mice; test: Non-fasting serum glucose and insulin in db/db diabetic mice; assay type: in vivo, mouse; conditions: three daily doses by gavage
Experimental: The Model—Male, C57BLKS/J m^+/m^+Lepr^db (db/db) mice were used to assess the potential of the test materials to reduce fasting serum glucose or insulin concentrations.
Testing Procedure—Test substances were administered daily by gavage in 0.2% Tween-80. Serum was collected from the retroorbital sinus before the initial dose and ninety minutes after the third and final dose. Non-fasting serum glucose was determined enzymatically by the mutarotase/glucose oxidase method and serum insulin was determined by a mouse specific ELISA.

[6] = tested on: DBA/J mice; test: Collagen induced rheumatoid arthritis murine model; assay type: in vivo, mouse; conditions: 10 mg/kg, days 30-42

In the case of CC(=O)Oc1ccccc1C(=O)O [Aspirin, aspirin], the “published values for direct COX-2 inhibition” value [1] is given as 1.4 to 50 µg/mL.
For CC(C)CCC1=C(O)C(C(=O)C(C)C)=C(O)C(CCC(C)C)(CCC(C)C)C1=O [Hexahydro colupulone, hexahydrocolupulone], the “adipogenic response versus positive controls indomethacin and troglitazone” value [2] was “failed to elicit a lipogenic response greater than the solvent controls” and the “Test Material at Half Maximal Secretion” value [3] was 3.2 µg/mL.
For CCc1ccc(CCOc2ccc(CC3SC(=O)NC3=O)cc2)nc1 (centres unmarked) [Pioglitazone, pioglitazone], the “maximum increase of adiponectin secretion over TNFα solvent control” value [4] was 80% and the “Adiponectin Index, Observed” value ([4]; 1.0 μg/ml, indexed to TNFα control (Table 26)) was 1.80.
In the case of Cc1c(C)c2c(c(C)c1O)CCC(C)(COc1ccc(CC3SC(=O)NC3=O)cc1)O2 (centres unmarked) [Troglitazone, troglitazone], the “maximum increase of adiponectin secretion over TNFα solvent control” value [4] is reported as 51%.
In the case of COc1cc(O)c(CC=C(C)C)c(O)c1C(=O)/C=C/c1ccc(O)cc1 [Xanthohumol, xanthohumol], the “serum glucose or insulin” value [5] is reported as “reduction in serum glucose with no effect on insulin” and the “adipogenic response versus positive controls indomethacin and troglitazone” value [2] is reported as “comparable to indomethacin and troglitazone”.
For CN(C)C(=N)N=C(N)N [metformin, reference compound], the “lipogenic response / lipogenic index relative to solvent control” value ([2]; Oil Red O, Acacia samples 50 μg/ml) was 0.79.
For C[C@]12C=CC(=O)C=C1CC[C@@H]1[C@@H]2[C@@H](O)C[C@@]2(C)[C@H]1CC[C@]2(O)C(=O)CO [prednisolone], the arthritic index [6] was “Significant reductions”.
In the case of Beta acids, the “adipogenic response versus positive controls indomethacin and troglitazone” value [2] is reported as “comparable to indomethacin and troglitazone”.
